From PubChem BioAssay AID651617 (Broad Institute, 2012)

Test system: M. tuberculosis log-phase replicating growth, plate reader
Test: growth inhibition of replicating M. tuberculosis, dose response, counter-screen, dry powder (AID 651617)

SMILES: c1ccc(-c2nnc(SCC3CC3)o2)cc1
- IC90: 125 µM

SMILES: [N-]=[N+]=NCCOCCNC(=O)CCCOc1ccc(CS(=O)c2nnc(-c3ccc(F)cc3)o2)nc1 (stereo not drawn)
- IC90: 125 µM

SMILES: c1ccc(-c2nnc(SCc3cccnc3)o2)cc1
- IC90: 125 µM
